# Data published in patent US9498483B2, “2,3,5-trisubstituted thiophene compounds and uses thereof” (priority 2010, dated 2016).
# Legend:
# HCV polymerase = target: T1, HCV polymerase (Hepatitis C virus genotype 1b, UniProt Q9WMX2); experiment: Polymerase assay of Biological Example 1 (IC50 values of Table 3); assay type: biochemical; settings: IC50 values of Table 3, polymerase assay of Biological Example 1; read-out: NS5B-enzyme3
# T1 construct: (His)6 (C); made in house; host or cells: XL-1 cells (E. coli, by own knowledge)
# [1] = test system: HCV replicon I389luc-ubi-neo/NS3-3′/ET in ET (Huh-lucubineo-ET) cells; experiment: Replicon assay (Biological Example 2), luciferase readout; assay type: cell-based; settings: Hepatitis C virus
# How it was run: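 EC50 values come from Hill fits of % inhibition of replicon-driven firefly luciferase, relative to no-compound wells. Compounds were serially diluted (10 points, 3-fold, 0.1 nM–50 μM final, 0.5% DMSO) onto ET replicon cells and read after 48 h.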
# [2] = ET cells, luciferase activity 48 hours after compound
SMILES,IC50 (HCV polymerase) [nM],"IC50 [1, 2] [nM]",IC50 ([1]; between 100 nM and 5.0 uM) [nM]
"CC(C)(C)C#Cc1cc(N2C(=O)[C@](C)(CCO)OC[C@H]2C2CCCCC2)c(C(=O)O)s1 [Compound 328, 3-[(2S,5R)-5-Cyclohexyl-2-(2-hydroxy-ethyl)-2-methyl-3-oxo-morpholin-4-yl]-5-(3,3-dimethyl-but-1-ynyl)-thiophene-2-carboxylic acid]",6,≤ 100,–
"CC(C)(C)C#Cc1cc(N2C(=O)C(CO)OC[C@H]2C2CCCCC2)c(C(=O)O)s1 (stereo partly drawn) [Compound 329, 3-((R)-5-Cyclohexyl-2-hydroxymethyl-3-oxo-morpholin-4-yl)-5-(3,3-dimethyl-but-1-ynyl)-thiophene-2-carboxylic acid]",5,≤ 100,–
"CC(C)(C)C#Cc1cc(N2C(=O)[C@@](C)(CC(O)CO)OC[C@H]2C2CCCCC2)c(C(=O)O)s1 (stereo partly drawn) [Compound 330, 3-[(2R,5R)-5-Cyclohexyl-2-(2,3-dihydroxy-propyl)-2-methyl-3-oxo-morpholin-4-yl]-5-(3,3-dimethyl-but-1-ynyl)-thiophene-2-carboxylic acid]",3,≤ 100,–
"CC(C)(C)C#Cc1cc(N2C(=O)[C@H](CC(O)CO)OC[C@H]2C2CCCCC2)c(C(=O)O)s1 (stereo partly drawn) [Compound 331, 3-[(2S,5R)-5-Cyclohexyl-2-(2,3 dihydroxy-propyl)-3-oxo-morpholin-4-yl]-5-(3,3-dimethyl-but-1-ynyl)-thiophene-2 carboxylic acid]",8,–,100 to 5000
"CC(C)(C)C#Cc1cc(N2C(=O)[C@H](CCO)OC[C@H]2C2CCCCC2)c(C(=O)O)s1 [Compound 332, 3-[(2S,5R)-5-Cyclohexyl-2-(2-hydroxy-ethyl)-3-oxo-morpholin-4-yl]-5-(3,3-dimethyl-but-1-ynyl)-thiophene-2-carboxylic acid]",12,≤ 100,–
"CC(C)(C)C#Cc1cc(N2C(=O)C(CCO)(CCO)OC[C@H]2C2CCCCC2)c(C(=O)O)s1 [Compound 333, 3-[(R)-5-Cyclohexyl-2,2-bis-(2-hydroxy-ethyl)-3-oxo-morpholin-4-yl]-5-(3,3-dimethyl-but-1-ynyl)-thiophene-2-carboxylic acid]",10,–,100 to 5000
"CC(C)(C)C#Cc1cc(N2C(=O)[C@H](O)CC[C@H]2C2CCCCC2)c(C(=O)O)s1 [Compound 334, 3-((3R,6S)-6-Cyclohexyl-3-hydroxy-2-oxo-piperidin-1-yl)-5-(3,3-dimethyl-but-1-ynyl)-thiophene-2-carboxylic acid]",3,≤ 100,–
"CC(C)(C)C#Cc1cc(N2C(=O)CCCC[C@H]2C2CCCCC2)c(C(=O)O)s1 [Compound 335, 3-((S)-2-Cyclohexyl-7-oxo-azepan-1-yl)-5-(3,3-dimethyl-but-1-ynyl)-thiophene-2-carboxylic acid]",24,–,100 to 5000
"C[C@@H](O)C[C@H]1OC[C@@H](C2CCCCC2)N(c2cc(C#CC(C)(C)C)sc2C(=O)O)C1=O [Compound 336, 3-[(2R,5R)-5-Cyclohexyl-2-((R)-2-hydroxy-propyl)-3-oxo-morpholin-4-yl]-5-(3,3-dimethyl-but-1-ynyl)-thiophene-2-carboxylic acid]",3,≤ 100,–
"C[C@H](O)C[C@H]1OC[C@@H](C2CCCCC2)N(c2cc(C#CC(C)(C)C)sc2C(=O)O)C1=O [Compound 337, 3-[(2R,5R)-5-Cyclohexyl-2-((S)-2-hydroxy-propyl)-3-oxo-morpholin-4-yl]-5-(3,3-dimethyl-but-1-ynyl)-thiophene-2-carboxylic acid]",2,≤ 100,–
"CC(C)(C)C#Cc1cc(N2C(=O)[C@H](CCCCO)OC[C@H]2C2CCCCC2)c(C(=O)O)s1 [Compound 338, 3-[(2S,5R)-5-Cyclohexyl-2-(4-hydroxy-butyl)-3-oxo-morpholin-4-yl]-5-(3,3-dimethyl-but-1-ynyl)-thiophene-2-carboxylic acid]",31,–,100 to 5000
